# Source: patent publication US9328099B2, “Cyanomethylpyrazole carboxamides as janus kinase inhibitors” (Merck Sharp & Dohme Corp., priority 2011, dated 2016)
# Tests used:
# JAK2 = JAK2 (Homo sapiens (Human), UniProt O60674); test: Jak Biochemical HTRF Assay, JAK2; conditions: HTRF biochemical assay, GST-tagged catalytic domain; top concentration tested […]
# Text: (§1) Jak Biochemical HTRF Assay Protocol
# (§2) Subsequent reagent additions employed an Agilent Bravo.
# JAK1 = JAK1 (Homo sapiens (Human), UniProt P23458); test: Jak Biochemical HTRF Assay, JAK1; conditions: HTRF biochemical assay, GST-tagged catalytic domain; top concentration tested […]; read-out: JAK1 IC50
# Sequence of JAK1 (P23458 875-1153): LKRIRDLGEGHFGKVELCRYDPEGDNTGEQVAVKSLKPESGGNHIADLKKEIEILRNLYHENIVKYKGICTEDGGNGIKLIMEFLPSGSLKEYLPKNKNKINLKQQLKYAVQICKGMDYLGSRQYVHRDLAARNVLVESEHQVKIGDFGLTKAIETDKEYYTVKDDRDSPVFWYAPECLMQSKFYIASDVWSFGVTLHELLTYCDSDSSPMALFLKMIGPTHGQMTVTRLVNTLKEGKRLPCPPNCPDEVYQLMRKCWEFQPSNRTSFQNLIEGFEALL
# Text: as §1, §2
# Sequence of JAK2 (O60674 849-1124): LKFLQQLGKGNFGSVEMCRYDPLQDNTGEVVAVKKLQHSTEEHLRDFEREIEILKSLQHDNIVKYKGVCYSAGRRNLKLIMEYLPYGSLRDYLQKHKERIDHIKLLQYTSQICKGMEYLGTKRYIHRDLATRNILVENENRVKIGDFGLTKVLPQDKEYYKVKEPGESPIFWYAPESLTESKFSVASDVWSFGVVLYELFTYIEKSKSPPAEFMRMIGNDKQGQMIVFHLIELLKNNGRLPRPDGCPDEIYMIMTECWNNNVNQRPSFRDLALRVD
Compound,IC50 (JAK2),IC50 (JAK1)
"N#CCC1(n2cc(C(N)=O)c(Nc3ccccc3)n2)CCN(C(=O)c2ccsc2)CC1 [Example 34-16, 1-[4-(cyanomethyl)-1-(thiophen-3-ylcarbonyl)piperidin-4-yl]-3-(phenylamino)-1H-pyrazole-4-carboxamide]",0.035 µM,0.002 µM
"N#CCC1(n2cc(C(N)=O)c(Nc3ccccc3)n2)CCN(C(=O)/C=C/c2cccnc2)CC1 [Example 34-17, 1-{4-(cyanomethyl)-1-[(2E)-3-pyridin-3-ylprop-2-enoyl]piperidin-4-yl}-3-(phenylamino)-1H-pyrazole-4-carboxamide]",0.158 µM,0.01 µM
"COc1ccc(C(=O)N2CCC(CC#N)(n3cc(C(N)=O)c(Nc4ccccc4)n3)CC2)cc1 [Example 34-18, 1-{4-(cyanomethyl)-1-[(4-methoxyphenyl)carbonyl]piperidin-4-yl}-3-(phenylamino)-1H-pyrazole-4-carboxamide]",0.137 µM,0.008 µM
"N#CCC1(n2cc(C(N)=O)c(Nc3ccccc3)n2)CCN(C(=O)c2ccc(Cl)cc2)CC1 [Example 34-19, 1-{1-[(4-chlorophenyl)carbonyl]-4-(cyanomethyl)piperidin-4-yl}-3-(phenylamino)-1H-pyrazole-4-carboxamide]",0.184 µM,0.011 µM
"N#CCC1(n2cc(C(N)=O)c(Nc3ccccc3)n2)CCN(C(=O)c2ccccc2Cl)CC1 [Example 34-20, 1-{1-[(2-chlorophenyl)carbonyl]-4-(cyanomethyl)piperidin-4-yl}-3-(phenylamino)-1H-pyrazole-4-carboxamide]",0.115 µM,0.013 µM
"N#CCC1(n2cc(C(N)=O)c(Nc3ccccc3)n2)CCN(C(=O)c2cccc(Cl)c2)CC1 [Example 34-21, l-{l-[(3-chlorophenyl)carbonyl]-4-(cyanomethyl)piperidin-4-yl}-3-(phenylamino)-lH-pyrazole-4-carboxamide]",0.063 µM,0.004 µM
"N#CCC1(n2cc(C(N)=O)c(Nc3ccccc3)n2)CCN(C(=O)c2cc3ccccc3[nH]2)CC1 [Example 34-22, 1-[4-(cyanomethyl)-1-(1H-indol-2-ylcarbonyl)piperidin-4-yl]-3-(phenylamino)-1H-pyrazole-4-carboxamide]",0.176 µM,0.006 µM
"CN(C)c1ccc(C(=O)N2CCC(CC#N)(n3cc(C(N)=O)c(Nc4ccccc4)n3)CC2)cc1 [Example 34-23, 1-[4-(cyanomethyl)-1-{[4-(dimethylamino)phenyl]carbonyl}piperidin-4-yl]-3-(phenylamino)-lH-pyrazole-4-carboxamide]",0.23 µM,0.014 µM
"COc1ccc(CC(=O)N2CCC(CC#N)(n3cc(C(N)=O)c(Nc4ccccc4)n3)CC2)cc1 [Example 34-24, 1-{4-(cyanomethyl)-1-[(4-methoxyphenyl)acetyl]piperidin-4-yl}-3-(phenylamino)-1H-pyrazole-4-carboxamide]",0.084 µM,0.007 µM
"N#CCC1(n2cc(C(N)=O)c(Nc3ccccc3)n2)CCN(C(=O)c2cccc3ccccc23)CC1 [Example 34-25, 1-[4-(cyanomethyl)-1-(naphthalene-1-ylcarbonyl)piperidin-4-yl]-3-(phenylamino)-1H-pyrazole-4-carboxamide]",0.35 µM,0.028 µM
"Cn1c(C(=O)N2CCC(CC#N)(n3cc(C(N)=O)c(Nc4ccccc4)n3)CC2)cc2ccccc21 [Example 34-26, 1-{4-(cyanomethyl)-1-[(1-methyl-1H-indol-2-yl)carbonyl]piperidin-4-yl}-3-(phenylamino)-1H-pyrazole-4-carboxamide]",0.238 µM,0.01 µM
"COc1ccc(C(=O)N2CCC(CC#N)(n3cc(C(N)=O)c(Nc4ccccc4)n3)CC2)cc1OC [Example 34-27, 1-{4-(cyanomethyl)-l-[(3,4-dimethoxyphenyl)carbonyl]piperidin-4-yl}-3-(phenylamino)-1H-pyrazole-4-carboxamide]",0.448 µM,0.032 µM
"N#CCC1(n2cc(C(N)=O)c(Nc3ccccc3)n2)CCN(C(=O)c2cccc(N3CCOCC3)c2)CC1 [Example 34-28, 1-(4-(cyanomethyl)-1-[(3-morpholin-4-ylphenyl)carbonyl]piperidin-4-yl}-3-(phenylamino)-1H-pyrazole-4-carboxamide]",1.05 µM,0.092 µM
"N#CCC1(n2cc(C(N)=O)c(Nc3ccccc3)n2)CCN(C(=O)c2ccccc2-c2ccccc2)CC1 [Example 34-29, 1-[1-(biphenyl-2-ylcarbonyl)-4-(cyanomethyl)piperidin-4-yl]-3-(phenylamino)-1H-pyrazole-4-carboxamide]",1.48 µM,0.387 µM
"N#CCC1(n2cc(C(N)=O)c(Nc3ccccc3)n2)CCN(C(=O)Cc2ccc(C(F)(F)F)cc2)CC1 [Example 34-30, 1-[4-(cyanomethyl)-1-{[4-(trifluoromethyl)phenyl]acetyl}piperidin-4-yl]-3-(phenylamino)-1H-pyrazole-4-carboxamide]",0.363 µM,0.035 µM
"N#CCC1(n2cc(C(N)=O)c(Nc3ccccc3)n2)CCN(C(=O)c2ccc(N3CCOCC3)cc2)CC1 [Example 34-31, 1-{4-(cyanomethyl)-1-[(4-morpholin-4-ylphenyl)carbonyl]piperidin-4-yl}-3-(phenylamino)-1H-pyrazole-4-carboxamide]",0.704 µM,0.061 µM
"N#CCC1(n2cc(C(N)=O)c(Nc3ccccc3)n2)CCN(C(=O)c2ccc3ccccc3n2)CC1 [Example 34-32, 1-[4-(cyanomethyl)-1-(quinolin-2-ylcarbonyl)piperidin-4-yl]-3-(phenylamino)-1H-pyrazole-4-carboxamide]",0.166 µM,0.006 µM
"N#CCC1(n2cc(C(N)=O)c(Nc3ccccc3)n2)CCN(C(=O)C(c2ccccc2)c2ccccc2)CC1 [Example 34-33, 1-[4-(cyanomethyl)-1-(diphenylacetyl)piperidin-4-yl]-3-(phenylamino)-1H-pyrazole-4-carboxamide]",0.711 µM,0.153 µM
"CN1CCN(c2ccc(C(=O)N3CCC(CC#N)(n4cc(C(N)=O)c(Nc5ccccc5)n4)CC3)cc2)CC1 [Example 34-34, 1-[4-(cyanomethyl)-1-{[4-(4-methylpiperazin-1-yl)phenyl]carbonyl}piperidin-4-yl] 3-(phenylamino)-1H-pyrazole-4-carboxamide]",0.83 µM,0.06 µM
"N#CCC1(n2cc(C(N)=O)c(Nc3ccccc3)n2)CCN(C(=O)CO)CC1 [Example 34-35, 1-[4-(cyanomethyl)-1-(hydroxyacetyl)piperidin-4-yl]-3-(phenylamino)-1H-pyrazole-4-carboxamide]",0.248 µM,0.044 µM
"CCC(=O)N1CC(CC#N)(n2cc(C(N)=O)c(Nc3ccccc3)n2)C1 [Example 34-36, 1-[3-(cyanomethyl)-1-propanoylazetidin-3-yl]-3-(phenylamino)-1H-pyrazole-4-carboxamide]",0.298 µM,0.042 µM
"CC(C)(C)C(=O)N1CC(CC#N)(n2cc(C(N)=O)c(Nc3ccccc3)n2)C1 [Example 34-37, 1-[3-(cyanomethyl)-1-(2,2-dimethylpropanoyl)azetidin-3-yl]-3-(phenylamino)-1H-pyrazole-4-carboxamide]",0.57 µM,0.138 µM
